# Data reported in patent US12427188B2, “Pyocyanine demethylases and related phenazine degrading agents compositions, methods and systems for interfering with viability of bacteria” (priority 2020, dated 2025).
# Read-outs that look alike come from different tables or passages of the source.
# B1: PodA: Pyocyanin demethylase of M. fortuitum, SEQ ID NO: 1; in the ABBA experiments the PodA added was PodA10 (protein, listed as Mycobacterium fortuitum)
# chain: MTGKTKPAIIGGVAITALAAAGLGVWLFTDGRGGRSTTEPVTMTLDVKNDQVAKHDFGKPGMDVGDMDIFSDILSVDGKQVGYDGGACFFTNVTPDNPMTYCELTIHLDAGEIFARSLTPHTLAPFTMAITGGTGEYANSKGELTVSGVATPDEKYELKLTK
# Columns and labels:
# [1] = Redox potential E0' vs. NHE of redox-active compounds; assay type: physicochemical; conditions: measured in aqueous solution at pH 7 in this study (footnote b)
# PA14 = assay: Redox cycling, reduction by and survival support of PA14; assay type: cell-based, P. aeruginosa
# [2] = oxidized form; literature values (footnotes a, c, d, e); cited from earlier work
# [3] = copper chelating agent; cited from earlier work
# [4] = tested on: Pseudomonas aeruginosa aggregate biofilms; assay: PodA and tobramycin agar block biofilm assay (ABBA) synergy experiments; assay type: cell-based; conditions: for peak PI intensity: PodA10 5 μM, tobramycin 50 μg mL^−1
# Method: Pseudomonas aeruginosa PodA and tobramycin agar block biofilm assay (ABBA) synergy experiments. Starter Pseudomonas aeruginosa cultures were grown 24 h at 37° C. shaking in LB and the OD500 was determined by diluting cells 1:10. For inoculation into agar, cells were first diluted to an OD of 1.0, followed by a 1:10 dilution for a final OD of 0.1. Molten LB agar (1% w/v) or SCFM agar (1% w/v, made by mixing premade 2× SCFM and 2% agar) was incubated at 44° C., after which 10 μL of OD 0.1 culture was added and mixed into 1 mL of agar, for a final starting OD of 0.001. A portion of the mixture (200 μL) was pipetted into a well of an 8-well glass chamber slide for microscopy (Thermo Fisher Scientific #155409) or into a 2 mL Eppendorf tube for cell viability experiments. ABBAs were incubated at 37° C. for 24 h in a Tupperware lined with wet paper towels. Following growth, ABBAs were washed with 200 μL of HEPES (20 mM, pH 7) to rid planktonic cells growing on the surface of the agar. Treatment stocks (100 μL each) were made by diluting PodA10 and/or tobramycin into HEPES (final concentration of 20 mM, pH 7), with the no treatment control consisting of solely HEPES. Final concentrations of PodA (5 μM) and tobramycin (50 ug mL^−1) were calculated accounting for the total volume of the agar+liquid. ABBAs were treated overnight (14 h), treatment mixture was decanted, and agar blocks were washed with HEPES (400 μL).
# For microscopy experiments, cells were incubated for 30 min with 125 μL of diluted propidium iodide (final concentration of 490 μM when added to ABBA, taking into account volume of the agar) and SYTO-9 (final concentration of 16 μM), after which 50 μL of a 1:50 dilution of 5-μm fluorescent beads (Spherotech; CFP-5045-2) was added to each agar block. ABBAs were imaged with a Leica TCS SPE confocal microscope as described elsewhere using 512×512-pixel format (29)[44], with the exception of imaging with a 6 μm step-size in the Z-direction.
# For cell viability experiments, 300 μL of HEPES (20 mM, pH 7) was pipetted into each Eppendorf ABBA tube and samples were homogenized on speed 3 of a Bio-Gen PRO200 Homogenizer (PRO Scientific). Samples were briefly spun to rid of air bubbles (<1,000×g) and diluted in series and plated as described above in liquid synergy experiments. Experiments were completed with biological triplicates and was repeated thrice, with a representative figure shown.
# ABBA microscopy image analysis. Images were analyzed in FIJI by re-slicing the data set in the XZ dimension followed by a max-intensity Z-projection. The brightness/contrast was auto-normalized in FIJI to the sample treated with only tobramycin. These LUT values were then applied to the other images in the corresponding data sets. Average pixel intensities along the Z-dimensions were found using the “Plot Profile” function in FIJI.
# To determine mean pixel intensity and aggregate volume of each ABBA, channels 1 (SYTO-9) and 2 (Propidium Iodide) were combined into a single channel using FIJI. Images were analyzed in Imaris and aggregate masks were created using the “surface” module of the software. Using the surface Imaris wizard, all options under algorithm settings were unchecked. For surface channel settings, channel 3 (representing combined channels) was chosen and default settings were maintained. For threshold settings, the no treatment ABBA sample was analyzed for proper data inclusion and a value of 60 was used for all LB samples, with a threshold value of 40 for all SCFM samples. Lastly, data were excluded 0.1 μm from the XY edges, to exclude aggregates that were cut off due to imaging field. Data were not excluded from the top edge of the ABBA, as images were collected from the surface of the agar using fluorescent beads as described above. Exported statistics were used to plot aggregate volume or mean PI intensity against position of aggregates in the Z-dimension. […]
Molecule,Support survival? (PA14),# of Redox cycles over 7 days (PA14),Reduction by PA14? (PA14),"E^0, (vs. NHE) (mV) [2]",other results
"O=C(O)Cc1cc(O)ccc1O [Homogentisic acid (HMA), Homogentisic acid]",No,No cycle,,,"E^0, (vs. NHE) (mV) [1]: +306^b mV"
C[n+]1ccc(-c2cc[n+](C)cc2)cc1 [Paraquat],No,No cycle,No,−446^e mV,
"Oc1cccc2nc3ccccc3nc12 [1-Hydroxyphenazine (1-OHPHZ), 1-Hydroxyphenazine]",Yes,14,Yes,−174 ^a mV,log of the equilibrium constant βmlh of binding copper [3]: 8.68
"CN(C)c1ccc2nc3ccc(=[N+](C)C)cc-3sc2c1 [Methylene blue (MB), Methylene blue]",No,3,Yes,+11 mV,"E^0, (vs. NHE) (mV) [1]: 0 mV"
"O=C1c2ccc(S(=O)(=O)O)cc2C(=O)c2ccc(S(=O)(=O)O)cc21 [2,6-AQDS]",No,No cycle,Yes (very slowly),−184 ^d mV,
NC[C@H]1O[C@H](O[C@H]2[C@H](O)[C@@H](O[C@H]3O[C@H](CO)[C@@H](O)[C@H](N)[C@H]3O)[C@H](N)C[C@@H]2N)[C@H](N)C[C@@H]1O [tobramycin],,,,,"PI staining versus non-treated samples ([4]; LB ABBA, hypoxia/anoxia from around 300 μm): no significant differences; peak PI intensity ([4]; LB): 151.0 AUs; PI staining versus no treatment controls ([4]; SCFM ABBA, all depths): considerably higher than no treatment controls at all depths; peak PI intensity ([4]; SCFM): 22.6 AUs"
"C[n+]1c2ccccc2nc2c([O-])cccc21 [Pyocyanin (PYO), Pyocyanin]",Yes,31,Yes,−40^a mV,
"O=C(O)c1cccc2nc3ccccc3nc12 [Phenazine-1-carboxylate (PCA), Phenazine-1-carboxylate]",Yes,22,Yes,−114 ^a mV,
B1,,,,,"outside ring PI staining pattern of aggregates ([4]; LB, XY-plane, versus untreated aggregates): abolished; PI staining at depth ([4]; PodA alone, >300 μm in LB (anoxic zone)): did not significantly change"
